According to ChEMBL document CHEMBL1142271, “New fused benzazepine as selective D3 receptor antagonists. Synthesis and biological evaluation. Part one: [h]-fused tricyclic systems” (Bioorg Med Chem Lett, 2008):

Key:
Format in all cases: ADME, organism-based
[1] = Blood clearance in rat; details: whole blood
[2] = Half life in rat; details: in vivo
[3] = Volume of distribution in rat; details: in vivo
[4] = Oral bioavailability in rat; details: in vivo
[5] = Ratio of drug level brain to blood in iv dosed rat after 1 hr; details: read-out: BBR

| Structure (SMILES) | clearance [1] | half-life [2] | Vd [3] | bioavailability [4] | Kp at 1 h [5] |
| --- | --- | --- | --- | --- | --- |
| Cc1ccc2c(-c3nnc(SCCCN4CCc5cc6nc(C(F)(F)F)oc6cc5CC4)n3C)cccc2n1 | 20 mL/min/kg | 198 min | 5 L/kg | 31% | 2.8 |
| Cc1ccc2c(-c3nnc(SCCCN4CCc5cc6nc(C)oc6cc5CC4)n3C)cccc2n1 | 47 mL/min/kg | 102 min | 4.31 L/kg | 34% | 5.4 |
| Cc1ncoc1-c1nnc(SCCCN2CCc3cc4nc(CC5CC5)oc4cc3CC2)n1C | 26 mL/min/kg |  | 1.7 L/kg | 32% |  |
| Cc1ncoc1-c1nnc(SCCCN2CCc3cc4nc(C(C)C)oc4cc3CC2)n1C | 152 mL/min/kg |  |  |  |  |
| Cc1ccc2c(-c3nnc(SCCCN4CCc5cc6nc(C(C)(C)C)oc6cc5CC4)n3C)cccc2n1 | 137 mL/min/kg |  |  |  |  |
| CCc1nc2cc3c(cc2o1)CCN(CCCSc1nnc(-c2ccc(C(F)(F)F)cc2)n1C)CC3 | 48 mL/min/kg | 66 min | 3.4 L/kg | 17% | 3.1 |
| Cc1ccc2c(-c3nnc(SCCCN4CCc5cc6c(cc5CC4)C(=O)N(C(C)C)C6)n3C)cccc2n1 | 36 mL/min/kg | 90 min | 3.5 L/kg | 10% | 0.2 |
| Cc1ccc2c(-c3nnc(SCCCN4CCc5cc6nc(CC7CC7)oc6cc5CC4)n3C)cccc2n1 | 50 mL/min/kg |  | 4.3 L/kg | 25% |  |
| Cc1ccc2c(-c3nnc(SCCCN4CCc5cc6nc(C(C)C)oc6cc5CC4)n3C)cccc2n1 | 81 mL/min/kg |  |  |  |  |
| Cc1ccc2c(-c3nnc(SCCCN4CCc5cc6nc(C)sc6cc5CC4)n3C)cccc2n1 | 34 mL/min/kg | 132 min | 4.3 L/kg | 25% | 4.4 |
| Cc1ccc2c(-c3nnc(SCCCN4CCc5cc6nc(N(C)C)oc6cc5CC4)n3C)cccc2n1 | 29 mL/min/kg | 96 min | 2.8 L/kg | 45% | 1.1 |
| Cc1ccc2c(-c3nnc(SCCCN4CCc5cc6nc(N7CCCCC7)oc6cc5CC4)n3C)cccc2n1 | 76 mL/min/kg |  |  | 3% | 5.1 |
| CCc1nc2cc3c(cc2o1)CCN(CCCSc1nnc(-c2cccc4nc(C)ccc24)n1C)CC3 | 57 mL/min/kg | 96 min | 5.1 L/kg | 31% |  |
| Cc1nc2cc3c(cc2o1)CCN(CCCSc1nnc(-c2ccc(C(F)(F)F)cc2)n1C)CC3 | 62 mL/min/kg | 90 min | 5.4 L/kg | 17% | 2.9 |
| Cc1ccc2c(-c3nnc(SCCCN4CCc5cc6c(cc5CC4)N(S(C)(=O)=O)CCO6)n3C)cccc2n1 | 32 mL/min/kg | 72 min | 2.4 L/kg |  | 0.2 |
| Cc1ccc2c(-c3nnc(SCCCN4CCc5cc6onc(C)c6cc5CC4)n3C)cccc2n1 | 40 mL/min/kg | 78 min | 3.3 L/kg | 22% | 7.7 |
| CCCc1nc2cc3c(cc2o1)CCN(CCCSc1nnc(-c2cccc4nc(C)ccc24)n1C)CC3 | 62 mL/min/kg |  |  | 6% |  |
